Earlier results as cited in patent US6147189A, “Polypeptides that include conformation-constraining groups which flank a protein-protein interaction site” (Virginia Commonwealth University, priority 1997, dated 2000).
Where a SMILES comes first, the peptide text is derived from it.

Tested on: receptors of sweet tasting papillae
Settings: comparison value

Sweetness compared with sugar: 160 times sweeter than sugar
Structure (SMILES): COC(=O)[C@H](Cc1ccccc1)NC(=O)[C@@H](N)CC(=O)O [aspartame] (H-Asp-Phe-OMe)
